Laboratory results: patent publication US20230287044A1, “NOVEL ANTIBACTERIAL PEPTIDE AND USE THEREOF” (priority 2020, published 2023)
In brackets after ≈: the same amount, converted by molar mass. Square brackets hold non-standard residues; d marks the D form. Peptide text beside a SMILES is read from it.

Experiments:
[1] = tested on: MRSA (S. aureus) KCCM 40510; assay type: cell-based, Staphylococcus aureus; conditions: KCCM 40510, 18 h
Procedure: (§1) The minimum growth inhibitory concentrations of the antibacterial peptides of the present invention weremeasured, and the results are shown in Table 3 below.
(§2) Specifically, the strains were grown in CAMHB until the midlog phase, and then diluted with PBS buffer to 1× 10^6 cfu/ml to prepare the bacterial solution, and the antibacterial peptide prepared in Example 1above was diluted with CAMHB to 80 µM, 40 µM, 20 µM, 10 µM, 5 µM, 2.5 µM, 1.25 µM and 0.63 µM, and then the bacterial solution was treated with the same volume.
(§3) The results are the average value of three independent experiments.

[2] = tested on: VRE (E. faecalis) ATCC 51575; assay type: cell-based, Enterococcus faecalis; conditions: ATCC 51575, 18 h
Procedure: as §1, §2, §3

[3] = tested on: MRPA (P. aeruginosa) CCARM 2180; assay type: cell-based, Pseudomonas aeruginosa; conditions: CCARM 2180, 18 h
Procedure: as §1, §2, §3

Row | Structure (SMILES) | MIC MRSA (S. aureus) KCCM 40510 [1] [µM] | MIC VRE (E. faecalis) ATCC 51575 [2] [µM] | MIC MRPA (P. aeruginosa) CCARM 2180 [3] [µM]
1 | CC[C@@H](C)[C@@H](NC(=O)[C@@H](Cc1c[nH]c2ccccc12)NC(=O)[C@@H](CC(C)C)NC(=O)[C@H](N)Cc1c[nH]c2ccccc12)C(=O)N[C@H](Cc1c[nH]c2ccccc12)C(=O)N[C@H](CCCNC(=N)N)C(=O)N[C@H](CCCNC(=N)N)C(=O)N[C@H](CCCNC(=N)N)C(N)=O [KSH41, wlwiwrrr] (H-[dW][dL][dW][dI][dW][dR][dR][dR]-NH2; N-terminus assumed) | 2.5 (≈ 3.18 µg/mL) |  | 
2 | CC[C@@H](C)[C@@H](NC(=O)[C@@H](Cc1c[nH]c2ccccc12)NC(=O)[C@@H](CC(C)C)NC(=O)[C@H](N)CC(C)C)C(=O)NCC(=O)N[C@H](CC(C)C)C(=O)N[C@H](CCCNC(=N)N)C(=O)N[C@H](CCCCN)C(=O)N[C@H](CCCCN)C(=O)N[C@H](CCCNC(=N)N)C(N)=O [KSH13, llwiglrkkr] (H-[dL][dL][dW][dI]G[dL][dR][dK][dK][dR]-NH2; N-terminus assumed) | 40 (≈ 51.3 µg/mL) | 40 (≈ 51.3 µg/mL) | >40
3 | CC(C)C[C@@H](NC(=O)[C@H](N)Cc1c[nH]c2ccccc12)C(=O)N[C@@H](C(=O)N[C@H](Cc1c[nH]c2ccccc12)C(=O)N[C@H](CO)C(=O)N[C@H](Cc1c[nH]c2ccccc12)C(=O)N[C@H](CCCNC(=N)N)C(=O)N[C@H](CCCNC(=N)N)C(=O)N[C@H](CCCNC(=N)N)C(N)=O)C(C)C [KSH39, wlvwswrrr] (H-[dW][dL][dV][dW][dS][dW][dR][dR][dR]-NH2; N-terminus assumed) |  |  | >40
4 | CC[C@@H](C)[C@@H](NC(=O)[C@H](N)Cc1c[nH]c2ccccc12)C(=O)N[C@@H](C(=O)N[C@H](Cc1c[nH]c2ccccc12)C(=O)N[C@@H](C(=O)N[C@H](Cc1c[nH]c2ccccc12)C(=O)N[C@H](CCCNC(=N)N)C(=O)N[C@H](CCCNC(=N)N)C(=O)N[C@H](CCCNC(=N)N)C(N)=O)[C@H](C)CC)[C@H](C)CC [KSH61, wiiwiwrrr] (H-[dW][dI][dI][dW][dI][dW][dR][dR][dR]-NH2; N-terminus assumed) |  | 0.63 (≈ 0.872 µg/mL) | 
5 | CC[C@@H](C)[C@@H](NC(=O)[C@@H](Cc1c[nH]c2ccccc12)NC(=O)[C@@H](CC(C)C)NC(=O)[C@@H](CC(C)C)NC(=O)[C@H](N)Cc1c[nH]c2ccccc12)C(=O)NCC(=O)N[C@H](CC(C)C)C(=O)N[C@H](CCCNC(=N)N)C(=O)N[C@H](CCCCN)C(=O)N[C@H](CCCCN)C(N)=O [KSH8, wllwiglrkk] (H-[dW][dL][dL][dW][dI]G[dL][dR][dK][dK]-NH2; N-terminus assumed) |  |  | 40 (≈ 52.5 µg/mL)
6 | CC(C)C[C@@H](NC(=O)[C@H](N)Cc1c[nH]c2ccccc12)C(=O)N[C@@H](C(=O)N[C@H](Cc1c[nH]c2ccccc12)C(=O)N[C@H](CCCCN)C(=O)N[C@H](Cc1c[nH]c2ccccc12)C(=O)N[C@H](CCCNC(=N)N)C(=O)N[C@H](CCCNC(=N)N)C(=O)N[C@H](CCCNC(=N)N)C(N)=O)C(C)C [KSH37, wlvwkwrrr] (H-[dW][dL][dV][dW][dK][dW][dR][dR][dR]-NH2; N-terminus assumed) |  | 5 (≈ 6.92 µg/mL) | 40 (≈ 55.4 µg/mL)
7 | CC[C@@H](C)[C@@H](NC(=O)[C@@H](Cc1c[nH]c2ccccc12)NC(=O)[C@@H](CCCNC(=N)N)NC(=O)[C@@H](CCCNC(=N)N)NC(=O)[C@H](N)CCCNC(=N)N)C(=O)N[C@H](Cc1c[nH]c2ccccc12)C(=O)N[C@@H](C(=O)N[C@@H](C(=O)N[C@H](Cc1c[nH]c2ccccc12)C(N)=O)[C@H](C)CC)[C@H](C)CC [KSH60, rrrwiwiiw] (H-[dR][dR][dR][dW][dI][dW][dI][dI][dW]-NH2; N-terminus assumed) |  | 0.63 (≈ 0.872 µg/mL) | 
8 | CC[C@@H](C)[C@@H](NC(=O)[C@@H](Cc1c[nH]c2ccccc12)NC(=O)[C@@H](CC(C)C)NC(=O)[C@H](N)CC(C)C)C(=O)N[C@H](C)C(=O)N[C@H](CC(C)C)C(=O)N[C@H](CCCCN)C(=O)N[C@H](CCCCN)C(=O)N[C@H](CCCCN)C(=O)N[C@H](CCCCN)C(N)=O [KSH12, llwialkkkk] (H-[dL][dL][dW][dI][dA][dL][dK][dK][dK][dK]-NH2; N-terminus assumed) |  |  | >40
